Experimental data: patent publication US11382892B2, “Method for administration” (Hoffmann-La Roche Inc., priority 2012, dated 2022)

Test system: human acute myeloid leukemia xenograft model MOLM-13
Test: Survival / increase in life span in MOLM-13 xenograft
Assay type: in vivo, mice
Conditions: 80 mg/kg qd × 5 po
Description: For survival assessment, the percent of increased life space (ILS) was calculated as: 100×[(median survival day of treated group−median survival day of control group)/median survival day of control group]. Median survival was determined utilizing Kaplan Meier survival analysis. Survival in treated groups was statistically compared with the vehicle group and survival comparisons were done between groups using the log-rank test (Graph Pad Prism, La Jolla, Calif., USA). Differences between groups were considered significant when the probability value (p) was ≤0:05.
All dose levels are reported as the actual dosage of Compound A rather than including drug plus polymer.
Female SCID:beige mice (10/group), obtained from Charles River Laboratories (Wilmington, Del.) were utilized when they were approximately 8-10 weeks of age and weighed 21-23 g. The health of the mice was assessed daily by gross observation and analyses of blood samples taken from sentinel animals housed on shared shelf racks. All animals were allowed to acclimate and recover from any shipping-related stress for a minimum of 72 hours prior to experimental use. […]
Treatment duration was initiated on day 3 and was for 2 weeks. Animal body weights were measured three times per week and animals were monitored for clinical signs daily.

COc1cc(C(=O)O)ccc1NC(=O)[C@@H]1N[C@@H](CC(C)(C)C)[C@](C#N)(c2ccc(Cl)cc2F)[C@H]1c1cccc(Cl)c1F [Compound A, 4-{[(2R,3S,4R,5S)-4-(4-Chloro-2-fluoro-phenyl)-3-(3-chloro-2-fluoro-phenyl)-4-cyano-5-(2,2-dimethyl-propyl)-pyrrolidine-2-carbonyl]-amino}-3-methoxy-benzoic acid]
% ILS: 37%
50% Treatment Days (median survival) (vehicle 21 days): 28 days
